In patent US20260191863A1, “PYRROLOPYRIMIDINE COMPOSITIONS FOR TREATMENT OF ITK MEDIATED CONDITIONS” (ACLARIS THERAPEUTICS, INC., priority 2022, published 2026):
Entries after “also recorded” stand apart in the source; their conditions may differ.

What was measured:
ITK (IFNγ mRNA) = assay: SAD ex vivo PD: αCD3/αCD28 stimulated IFNγ mRNA production; format: in vivo; settings: Homo sapiens; SAD study; read-out: Clinical EC50
Source text: (§1) Secondary Endpoints—Compound I plasma concentrations. Mean change from baseline in ex vivo stimulated pSTAT5 and pSTAT1 (signal transducer and activator of transcription); and in ex vivo stimulated IFNγ mRNA (interferon gamma messenger ribonucleic acid).
(§2) Summary of SAD data: FIGS. 4-8 and 9-13 show the SAD dose response, SAD exposure response, and SAD calculated response at Cmax by dose respectively for ITK (IL2 mRNA), ITK (IFNγ mRNA), JAK3 (pSTAT5, lymph), JAK3 (pSTAT5, CD3′ T), and ITK & JAK (IFNγ protein). Clinical and pre-clinical IC50 data for ITK (IL2 mRNA), ITK (IFNγ mRNA), JAK3 (pSTAT5, lymph), JAK3 (pSTAT5, CD3^+ T), and ITK & JAK (IFNγ protein) from the SAD study is shown in table 4.

JAK3 (pSTAT5, lymph) [1] = assay: SAD ex vivo PD: IL2 stimulated pSTAT5 in lymphocytes; settings: Homo sapiens, Lymphocyte; SAD study; read-out: Clinical EC50
Source text: as §1, §2

JAK3 (pSTAT5, CD3+ T) [2] = assay: SAD ex vivo PD: IL2 stimulated pSTAT5 in CD3+ T cells; settings: Homo sapiens, T-cell; SAD study; read-out: Clinical EC50
Source text: as §1, §2

JAK3 (pSTAT5, lymph) [3] = assay: Pre-clinical human whole blood IL-2/pSTAT5 (20 min), lymphocytes; format: cell-based; settings: for EC50: Homo sapiens, Lymphocyte
JAK3 (pSTAT5, CD3+ T) [4] = assay: Pre-clinical IL2 stimulated pSTAT5 in CD3+ T cells; format: cell-based; settings: Homo sapiens, T-cell
[5] = 13 week toxicology and toxicokinetic study in rats; format: in vivo, rat
Source text: Purpose: Evaluation of toxicity and toxicokinetic (TK) for Compound I, following daily dosing for 13 weeks.

[6] = system: ankle diameter swelling (Antigen Induced Arthritis); assay: Rat Antigen Induced Arthritis (AIA) model, ankle diameter swelling; format: in vivo; settings: PO from day 6
Source text: The study evaluated the rat AIA kinetics of ankle diameter swelling. Therapeutic model with PO dosing beginning on day 6.

JAK3 = molecular target: T1, JAK3 (Homo sapiens, UniProt P52333); assay: Cell IC50 JAK3 hPBMC IL-2/pSTAT5; format: cell-based
T1 construct: IL-2/pSTAT5; endogenous in cells; host or cells: human PBMC
T1 sequence (P52333 1-1124): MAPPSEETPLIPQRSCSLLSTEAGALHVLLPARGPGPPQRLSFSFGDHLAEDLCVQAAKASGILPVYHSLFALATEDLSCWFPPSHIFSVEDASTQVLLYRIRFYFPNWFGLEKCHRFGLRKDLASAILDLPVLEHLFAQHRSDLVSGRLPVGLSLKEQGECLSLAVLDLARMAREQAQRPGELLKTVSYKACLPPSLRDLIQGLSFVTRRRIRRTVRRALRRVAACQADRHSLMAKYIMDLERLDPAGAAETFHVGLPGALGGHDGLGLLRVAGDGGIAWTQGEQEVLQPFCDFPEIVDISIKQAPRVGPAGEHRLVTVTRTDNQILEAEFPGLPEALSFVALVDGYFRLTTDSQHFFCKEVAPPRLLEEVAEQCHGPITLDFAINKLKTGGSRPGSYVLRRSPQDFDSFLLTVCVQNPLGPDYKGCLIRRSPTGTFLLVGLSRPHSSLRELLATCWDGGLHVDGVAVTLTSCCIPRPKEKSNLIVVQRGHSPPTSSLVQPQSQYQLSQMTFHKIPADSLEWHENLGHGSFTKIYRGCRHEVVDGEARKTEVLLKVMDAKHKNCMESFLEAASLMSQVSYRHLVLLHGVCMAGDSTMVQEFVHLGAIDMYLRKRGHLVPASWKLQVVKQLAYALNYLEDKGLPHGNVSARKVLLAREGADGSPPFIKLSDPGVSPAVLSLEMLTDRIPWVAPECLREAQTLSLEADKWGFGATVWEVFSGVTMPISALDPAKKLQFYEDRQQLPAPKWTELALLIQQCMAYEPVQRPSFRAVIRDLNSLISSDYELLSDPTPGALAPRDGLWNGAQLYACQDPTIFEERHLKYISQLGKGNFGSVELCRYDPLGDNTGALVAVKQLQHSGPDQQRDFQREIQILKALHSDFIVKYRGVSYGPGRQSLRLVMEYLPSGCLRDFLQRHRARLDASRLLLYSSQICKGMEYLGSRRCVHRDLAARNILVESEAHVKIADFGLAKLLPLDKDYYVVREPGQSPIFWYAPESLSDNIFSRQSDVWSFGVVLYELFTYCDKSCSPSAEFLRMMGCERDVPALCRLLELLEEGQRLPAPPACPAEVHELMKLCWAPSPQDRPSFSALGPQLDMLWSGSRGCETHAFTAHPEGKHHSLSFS

JAK2 = molecular target: T2, JAK2 (Homo sapiens, UniProt O60674); assay: Cell IC50 JAK2; format: cell-based
T2 construct: endogenous in cells

ITK and JAK3 [7] = assay: SAD exploratory PD, all biomarker readouts; format: in vivo, human
Experimental: as §1
Results: Sixty-three subjects completed the SAD study. […] Peak concentrations were reached within 2 hours after dosing.

ITK and JAK3 [8] = assay: MAD exploratory PD, all biomarker readouts; format: in vivo, human
Experimental: Exploratory Endpoints—Mean change from baseline in cellular, extracellular (secreted), and/or message markers of inflammation.
Results: 57 subjects completed the MAD study. […] Peak concentrations were reached within 2 hours after dosing.

T2 sequence (O60674 whole entry): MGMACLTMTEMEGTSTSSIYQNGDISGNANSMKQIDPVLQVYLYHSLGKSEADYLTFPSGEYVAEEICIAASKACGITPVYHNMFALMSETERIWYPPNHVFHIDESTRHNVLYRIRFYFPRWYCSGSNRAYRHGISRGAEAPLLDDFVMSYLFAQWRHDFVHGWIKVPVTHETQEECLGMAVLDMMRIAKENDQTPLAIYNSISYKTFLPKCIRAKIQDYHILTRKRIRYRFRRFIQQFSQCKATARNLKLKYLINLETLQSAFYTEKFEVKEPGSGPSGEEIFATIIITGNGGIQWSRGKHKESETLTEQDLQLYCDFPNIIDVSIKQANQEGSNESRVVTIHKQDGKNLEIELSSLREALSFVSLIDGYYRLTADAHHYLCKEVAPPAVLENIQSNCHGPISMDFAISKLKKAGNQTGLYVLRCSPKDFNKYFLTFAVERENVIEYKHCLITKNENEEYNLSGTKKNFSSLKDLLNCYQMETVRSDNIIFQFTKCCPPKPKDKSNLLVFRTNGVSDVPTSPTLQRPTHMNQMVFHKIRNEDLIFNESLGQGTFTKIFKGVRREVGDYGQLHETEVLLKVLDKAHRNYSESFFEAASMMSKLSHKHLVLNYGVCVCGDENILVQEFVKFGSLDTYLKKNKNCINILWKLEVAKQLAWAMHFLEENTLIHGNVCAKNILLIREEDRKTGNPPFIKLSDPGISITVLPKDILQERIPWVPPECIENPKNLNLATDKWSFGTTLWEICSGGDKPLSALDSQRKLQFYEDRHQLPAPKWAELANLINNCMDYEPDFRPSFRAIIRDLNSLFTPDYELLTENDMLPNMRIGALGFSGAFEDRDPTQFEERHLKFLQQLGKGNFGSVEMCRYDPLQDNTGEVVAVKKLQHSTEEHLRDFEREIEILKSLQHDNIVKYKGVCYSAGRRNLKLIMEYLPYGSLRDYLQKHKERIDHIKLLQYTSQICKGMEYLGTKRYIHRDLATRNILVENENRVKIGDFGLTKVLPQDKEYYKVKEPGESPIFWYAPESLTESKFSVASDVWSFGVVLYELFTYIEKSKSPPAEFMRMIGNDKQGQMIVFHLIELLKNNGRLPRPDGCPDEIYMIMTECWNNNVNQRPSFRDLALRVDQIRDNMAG

Compound: C=CC(=O)N1C[C@H](Nc2ncnc3[nH]cc([C@H]4CC4(F)F)c23)CC[C@@H]1C [Compound I, 1-((2S,5R)-5-((5-((R)-2,2-difluorocyclopropyl)-7H-pyrrolo[2,3-d]pyrimidin-4-yl)amino)-2-methylpiperidin-1-yl)prop-2-en-1-one]
- EC50 (ITK (IFNγ mRNA)): 12.7 nM
- EC50 (JAK3 (pSTAT5, lymph) [1]): 137 nM
- EC50 (JAK3 (pSTAT5, CD3+ T) [2]): 110 nM
- Potency relative to Ritlecitinib, IL-2/pSTAT5 (20 min) (JAK3 (pSTAT5, lymph) [3]): (1.2 fold*)
- EC50 (JAK3 (pSTAT5, lymph) [3]; 20 min, read-out: Human Whole Blood EC50, IL-2/pSTAT5 (20 min)): 136 nM
- EC50 (JAK3 (pSTAT5, lymph) [3]; read-out: Pre-clinical EC50): 136 ± 51.2 nM
- EC50 (JAK3 (pSTAT5, CD3+ T) [4]): 140 ± 49.3 nM
- Nephrotoxicity ([5]; Compound I toxicity studies): no evidence of nephrotoxicity
- Cmax ([5]; in vivo, 80 mg/kg, rat, NOAEL 80 mpk): 13800 ng/mL
- AUC(0-t) ([5]; in vivo, 80 mg/kg, rat, NOAEL 80 mpk, read-out: AUC0-24 h at NOAEL): 45000 ng·h/mL
- Adverse effects ([5]; rat, 5, 20, 80 mpk, 13 weeks): No adverse effects observed
- No observed adverse effect level ([5]; rat, daily dosing 13 weeks): 80 mpk
- Ankle diameter swelling, comparison of regimens ([6]; rat AIA, 5 mpk BID, 15 BID and 30 QD): No significant difference
- BID vs QD dosing efficacy ([6]; rat arthritis model): BID dosing is more effective than QD dosing
- Potency relative to Ritlecitinib, JAK3 hPBMC IL-2/pSTAT5 (JAK3): 2.3 fold
- IC50 (JAK3; hPBMC, IL-2/pSTAT5): 23 nM
- JAK specificity (JAK3; vs other JAK kinases like JAK2): completely specific for JAK3
- Cell IC50, JAK2 (JAK2): Inactive
- Modulation of all PD biomarker readouts (ITK and JAK3 [7]): dose- and time-dependent modulation
- PD markers of ITK (αCD3/αCD28 induced IL2 and IFNγ mRNA) and JAK3 (IL2 induced pSTAT5) activation (ITK and JAK3 [7]): dose-dependently inhibited
- Inhibition of biomarker readouts (ITK and JAK3 [7]; 2 hours post treatment, doses of 15 mg to 80 mg): Near-complete inhibition
- Inhibition of biomarker readouts, comparison of regimens (ITK and JAK3 [8]; 10 mg TID, 15 mg BID, 30 mg BID doses): inhibited biomarker readouts to a similar extent
- Change of MAD Day 1 EC50 vs Days 7 & 15 EC50 (ITK and JAK3 [8]; MAD): No significant change
- Modulation of all PD biomarker readouts (ITK and JAK3 [8]; MAD): dose- and time-dependent modulation; also recorded: dose and time dependent modulation
- Inhibition of biomarker readouts (ITK and JAK3 [8]; MAD, 15-40 mg BID, across the dosing intervals): 50-90%
- Inhibition of biomarker readouts (ITK and JAK3 [8]; MAD, 2 hours post treatment, doses of 15 mg to 80 mg): Near-complete inhibition
